Literature values as cited in patent publication US8932634B2, “Hydrocolloid carrier beads with inert filler material” (Yissum Research Development Company of the Hebrew …, priority 2006, dated 2015).
Where a name gives a salt, the structure may show the parent alone.

- solubility in water: high
SMILES: COc1ccc([C@@H]2Sc3ccccc3N(CCN(C)C)C(=O)[C@@H]2OC(C)=O)cc1 [Diltiazem hydrochloride]
